One series deals with Coagulation factor IX (Homo sapiens, UniProt P00740). Briefly: Inhibition of human factor 9a using CH3SO2-D-CHG-Gly-Arg-AFC.AcOH as substrate by fluorescence assay.
In the next series the target is Coagulation factor X (Homo sapiens, UniProt P00742). Briefly: Inhibition of human factor 10a using n-Acetyl-KPR-AFC as substrate by fluorescence assay.
Series [1] concerns the target Voltage-gated inwardly rectifying potassium channel KCNH2 (Homo sapiens, UniProt Q12809). Kind of series: Inhibition of human ERG.
A short description of series [2]: Inhibition of CYP (unknown origin). The class given is ADME. To be noted: human.

pKi: −log10 of the molar value. Bounds are passed on as bounds.

Sequence of Coagulation factor X (P00742 41-179 limits assumed): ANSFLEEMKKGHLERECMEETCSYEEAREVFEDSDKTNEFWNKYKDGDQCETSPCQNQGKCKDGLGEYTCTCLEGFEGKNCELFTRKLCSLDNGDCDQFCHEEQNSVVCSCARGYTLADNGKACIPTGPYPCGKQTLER
Sequence of Coagulation factor X (P00742 235-488 limits assumed): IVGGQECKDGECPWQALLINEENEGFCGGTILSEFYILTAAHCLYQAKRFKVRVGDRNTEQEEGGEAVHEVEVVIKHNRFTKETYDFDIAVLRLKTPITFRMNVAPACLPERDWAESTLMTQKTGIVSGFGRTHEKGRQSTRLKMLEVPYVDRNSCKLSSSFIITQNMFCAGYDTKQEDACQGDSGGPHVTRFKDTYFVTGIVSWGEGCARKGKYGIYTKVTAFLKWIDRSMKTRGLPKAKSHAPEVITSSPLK
Sequence of Coagulation factor IX (P00740 47-191 limits assumed): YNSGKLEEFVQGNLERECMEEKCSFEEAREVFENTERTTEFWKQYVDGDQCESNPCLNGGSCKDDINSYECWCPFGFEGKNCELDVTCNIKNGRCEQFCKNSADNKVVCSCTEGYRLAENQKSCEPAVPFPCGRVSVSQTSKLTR
Sequence of Coagulation factor IX (P00740 227-461 limits assumed): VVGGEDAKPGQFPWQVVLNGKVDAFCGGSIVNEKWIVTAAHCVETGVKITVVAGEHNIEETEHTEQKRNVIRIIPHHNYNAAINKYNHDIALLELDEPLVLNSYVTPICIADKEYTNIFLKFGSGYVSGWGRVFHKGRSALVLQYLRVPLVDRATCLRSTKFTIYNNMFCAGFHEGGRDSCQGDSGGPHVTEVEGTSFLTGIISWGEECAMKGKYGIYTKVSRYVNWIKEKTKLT
Sequence of Voltage-gated inwardly rectifying potassium channel KCNH2 (Q12809 whole entry): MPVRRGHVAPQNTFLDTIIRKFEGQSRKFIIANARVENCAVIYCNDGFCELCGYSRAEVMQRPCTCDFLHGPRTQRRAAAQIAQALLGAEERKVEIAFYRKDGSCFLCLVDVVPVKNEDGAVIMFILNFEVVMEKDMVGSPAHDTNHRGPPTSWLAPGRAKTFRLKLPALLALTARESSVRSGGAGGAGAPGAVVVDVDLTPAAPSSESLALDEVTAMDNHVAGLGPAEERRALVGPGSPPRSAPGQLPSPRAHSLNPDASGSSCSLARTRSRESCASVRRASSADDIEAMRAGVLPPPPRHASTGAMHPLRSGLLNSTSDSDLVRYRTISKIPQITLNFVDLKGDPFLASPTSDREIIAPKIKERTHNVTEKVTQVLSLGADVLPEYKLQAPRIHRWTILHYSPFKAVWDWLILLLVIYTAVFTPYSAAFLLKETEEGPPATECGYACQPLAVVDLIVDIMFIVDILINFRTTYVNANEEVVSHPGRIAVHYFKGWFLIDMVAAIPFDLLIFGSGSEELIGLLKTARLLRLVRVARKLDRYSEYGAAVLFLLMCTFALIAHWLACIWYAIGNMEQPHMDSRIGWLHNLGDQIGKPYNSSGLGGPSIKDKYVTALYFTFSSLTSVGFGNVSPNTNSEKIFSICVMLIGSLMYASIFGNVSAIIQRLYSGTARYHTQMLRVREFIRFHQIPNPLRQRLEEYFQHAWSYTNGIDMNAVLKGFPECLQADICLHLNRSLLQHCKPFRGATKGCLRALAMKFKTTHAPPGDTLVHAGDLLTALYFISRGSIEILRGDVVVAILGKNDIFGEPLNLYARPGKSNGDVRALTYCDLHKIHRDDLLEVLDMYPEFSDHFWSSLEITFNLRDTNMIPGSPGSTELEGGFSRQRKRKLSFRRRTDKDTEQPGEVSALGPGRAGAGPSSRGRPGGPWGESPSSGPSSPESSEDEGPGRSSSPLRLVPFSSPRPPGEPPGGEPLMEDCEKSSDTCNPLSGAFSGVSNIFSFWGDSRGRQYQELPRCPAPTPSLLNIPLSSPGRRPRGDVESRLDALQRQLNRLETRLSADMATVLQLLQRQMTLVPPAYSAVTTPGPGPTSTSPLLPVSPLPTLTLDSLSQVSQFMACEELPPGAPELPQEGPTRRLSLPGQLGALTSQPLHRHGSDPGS

For orientation: pKi means −log10 of the Ki, conventionally taken in molar units. Read a high pKi as a small Ki. `Cc1ccc(O)c2c3c(nn12)CCC(C)(NC(=O)c1ccc(-n2cncn2)cc1Cl)C3` (configuration not stated) showed a pKi on Coagulation factor IX of 6.81.
On the same count and under the same terms, as for `Cc1ccc(O)c2nc(CCNC(=O)c3ccc(-n4cnnc4)cc3Cl)[nH]c12`, the figure is 3.88.
For the molecule `Cc1cc2nc(CCNC(=O)c3ccc(-n4cnnc4)cc3)[nH]c2cc1C`, the pKi on Coagulation factor X was < 4.20.
`Cc1cc2nc(CCNC(=O)c3ccccc3-n3cnnc3)[nH]c2cc1C`: the pKi on Coagulation factor IX is < 3.84.
Same read-out and setting: as for `Cc1cc2nc(CCNC(=O)c3ccc(C#N)cc3F)[nH]c2cc1C`, the figure is < 3.84; as for `Cc1cc2nc(CCNC(=O)c3ccccc3Cl)[nH]c2cc1C`, < 3.84; as for `Cc1cc2nc(CCNC(=O)c3ccc(-n4cncn4)cc3Cl)[nH]c2cc1C`, 5.67.
Same read-out and setting: as for `Cc1cc2nc(CCNC(=O)c3ccc(-n4ccnn4)cc3Cl)[nH]c2cc1C`, the figure is 3.89.
Same read-out and setting: as for `Cc1cc2nc(CCNC(=O)c3ccc(-n4nccn4)cc3Cl)[nH]c2cc1C`, the figure is < 3.84; as for `Cc1cc2nc(CCNC(=O)c3ccc(-n4ccnc4)cc3Cl)[nH]c2cc1C`, 5.25.
For the molecule `Cc1ccc(O)c2c3c(nn12)CCC(C)(NC(=O)c1ccc(-n2ccnn2)cc1)C3` (configuration not stated), the pKi on Coagulation factor IX is 6.34.
On to `Cc1ccc(O)c2c3c(nn12)CCC(C)(NC(=O)c1ccc(C#N)cc1F)C3` (configuration not stated), for which the values for the pKi at Coagulation factor IX and on Coagulation factor X were 5.70 and < 4.20, respectively.
`Cc1ccc(O)c2c3c(nn12)CCC(C)(NC(=O)c1ccc(F)cc1)C3` (configuration not stated): the pKi at Coagulation factor IX is 4.74.
Take `Cc1ccc(O)c2c3c(nn12)CCC(C)(NC(=O)c1ccc(C#N)cc1)C3` (configuration not stated): at Coagulation factor IX, the pKi was 4.69.
The same measure, in the same setting: as for `Cc1ccc(O)c2c3c(nn12)CCC(C)(NC(=O)c1ccccc1Cl)C3` (configuration not stated), the figure is 5.20.
As to `Cc1ccc(O)c2c3c(nn12)CCC(C)(NC(=O)c1ccc(-n2cnnc2)cc1Cl)C3` (configuration not stated), the pKi at Coagulation factor IX was 7.05; on Coagulation factor X, 4.92. In addition, the “inhibition (INH)” value in series [1] and in series [2] was “Not Active” throughout.
At Coagulation factor IX, `Cc1ccc(O)c2c3c(nn12)CCC(C)(NC(=O)c1ccc(-n2ccnn2)cc1Cl)C3` (configuration not stated) had a pKi of 6.03.
On the same count and under the same terms, as for `Cc1ccc(O)c2c3c(nn12)CCC(C)(NC(=O)c1ccc(-n2nccn2)cc1Cl)C3` (configuration not stated), the figure is 4.52; as for `Cc1ccc(O)c2c3c(nn12)CCC(C)(NC(=O)c1ccc(-n2ccnc2)cc1Cl)C3` (configuration not stated), 6.23.
The same measure, in the same setting: with `Cc1ccc(O)c2c3c(nn12)CCC(C)(NC(=O)c1ccc(-n2cccn2)cc1Cl)C3` (configuration not stated) the figure was 5.36.
On the same count and under the same terms, with `Cc1cc2nc(C[C@H](C)NC(=O)c3ccc(-n4cnnc4)cc3Cl)[nH]c2cc1C` the figure was 4.26.
At Coagulation factor IX, `Cc1cc2nc(C[C@@H](C)NC(=O)c3ccc(-n4cnnc4)cc3Cl)[nH]c2cc1C` showed a pKi of 4.46.
With `Cc1cc2nc([C@@H](CNC(=O)c3ccc(-n4cnnc4)cc3Cl)c3ccccc3)[nH]c2cc1C`, the pKi was 7.80 on Coagulation factor IX and 6.41 on Coagulation factor X. The “inhibition (INH)” value in series [1] and in series [2] was “Not Active” in each case.
On Coagulation factor IX, `Cc1cc2nc([C@H](CNC(=O)c3ccc(-n4cnnc4)cc3Cl)c3ccccc3)[nH]c2cc1C` showed a pKi of 6.28.
Same read-out and setting: with `Cc1cc2nc(C(C)CNC(=O)c3ccc(-n4cnnc4)cc3Cl)[nH]c2cc1C` (racemic) the figure was 6.47.
